Here are results for twelve compounds from US12233071B2, “Medicament for treating cough” (NIPPON CHEMIPHAR CO., LTD, priority 2018, dated 2025).

The test system of test [1] is citric acid (0.5 M)-induced cough. Put plainly: Citric acid-induced cough reflux in pretreatment guinea pigs, oral administration. The class given is in vivo, Hartly strain guinea pigs. To be noted: for number of coughs, pre versus post administration: pretreatment guinea pigs. From the text: Cough reflux is induced by inhalation of (in the case of mice, 0.1 M or 0.25 M and in the case of guinea pigs, 0.25 M or 0.5 M) citric acid by mice or guinea pigs under non-anesthesia conditions. The citric acid is made aerosol by using an ultrasonic nebulizer (NE-U17: OMRON Corporation), and is inhaled while the air is supplied with an artificial respirator (SN-480-7: Shinano Seisakusho). The citric acid aerosol has an average particle size of from 1 to 8 μm, and the artificial respirator is used to supply the air at a one-time ventilation volume of 6 mL, a frequency of 30 times per min, and an inhalation period of 3 min.
The respiration and the cough reflux are measured in accordance with the body-plethysmograph method. The plethysmograph used includes: a plastic-made, cylindrical cylinder part in which the trunk of each mouse or guinea pig is housed; and a cap part that covers the head portion (any plastic-made cylinder is allowed as long as each experimental animal can be put in; in the case of the mouse, for instance, the part with a diameter of 4 cm and a length of 7 cm was used). An exhaust hole is created at an upper cylinder portion so as to be able to connect, via a silicon tube, to a respiratory flow meter (TP-602T: NIHON KOHDEN CORPORATION). To tightly seal the inside of the cylinder, a rubber or celluloid collar is attached to the neck of each animal, and the cap covering the whole head is used to fix them. The head-attached cap part has an exhaust port and an inhalation port created for inhalation of a cough-inducing substance. In addition, a screw-type lid is attached to a tail portion of the cylinder so as to move in or out each experimental animal. Each mouse is put in the cylinder, allowed to play for at least 30 min, adapted to an experimental environment, and then subjected to the experiment. The respiration is recorded in a PC (IdeaPad 300: Lenovo) for measurement by measuring, as a change in volume of the cylinder, the chest movement of each experimental animal in the cylinder by using a PowerLab (ML826 PowerLab 2/26: AD Instruments) via a respiratory flow meter. When a cough is induced, the chest of the experimental animal is moved vigorously, which causes an instantaneous large volume change in the cylinder. This change is recorded using the respiratory flow meter. This frequency is recorded to measure the number of coughs. The data is analyzed by LabChart version 8 (ADInstruments). In addition, immediately before inhalation of citric acid, the respiratory frequency per 15 sec is measured.
In this way, the effects were investigated.
At that time, Hartly strain guinea pigs were used as the guinea pigs, and 0.5 M citric acid was used as the citric acid.
In this way, the effects were investigated. Here, 0.5 M citric acid was used as the pretreated citric acid.

The target of another test is T1, human P2X4 (Homo sapiens, UniProt Q99571).
T1 sequence (Q99571 1-388): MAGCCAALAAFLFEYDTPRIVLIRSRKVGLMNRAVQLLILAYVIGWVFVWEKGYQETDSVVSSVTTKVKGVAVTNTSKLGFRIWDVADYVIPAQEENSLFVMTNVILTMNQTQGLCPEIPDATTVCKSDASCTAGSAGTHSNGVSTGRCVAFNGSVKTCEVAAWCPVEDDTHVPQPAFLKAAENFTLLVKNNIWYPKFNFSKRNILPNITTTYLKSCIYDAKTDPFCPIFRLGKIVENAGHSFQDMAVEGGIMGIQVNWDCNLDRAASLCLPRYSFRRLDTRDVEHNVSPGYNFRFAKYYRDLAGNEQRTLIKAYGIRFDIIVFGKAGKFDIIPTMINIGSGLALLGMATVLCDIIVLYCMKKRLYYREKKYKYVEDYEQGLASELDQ
Put plainly: P2X4 receptor antagonistic action: ATP-induced intracellular calcium response (Fura-2AM) in P2X4 receptor-expressing 1321N1 cells. The class given is cell-based. The procedure: An ATP receptor (human P2X4) was introduced in 1321N1 cells, which were then used as a system in which P2X4 receptor was expressed stably. The P2X4 receptor-expressing cells were seeded on a 96-well plate, were cultured for 24 h under conditions at 37° C. and 5% C02, and were then used for calcium measurement. Fura-2AM, which is a calcium fluorescence indicator, was dissolved in an extracellular solution for calcium imaging and applied to the seeded cells. Then, the cells were allowed to stand at room temperature for 45 min. In this way, the Fura-2AM was taken up in the cells. A micro plate reader EnVision (PerkinElmer) was used for the measurement. Light emitted from a xenon lamp was made to pass through a 340-nm or 380-nm filter, and F340 or F380, which is 510-nm fluorescence emitted when the cells were irradiated, were observed. Then, a change in the ratio value F340/F380 was an index for the intracellular calcium change. The measurement was carried out by adding ATP at the final concentration of 1 μM to each well and by recording, over time, the ATP-induced intracellular calcium response. The inhibitory activity of each test substance was measured by conducting 15-min pretreatment with each test substance before ATP application, and was calculated while compared to the case of the absence of the test substance.
A general note: Calcium assays in cells follow changes in intracellular calcium, usually with a dye or a luminescent sensor.

The subject of test [2] is citric acid (0.25 M)-induced cough. Put plainly: Citric acid-induced cough reflux in pretreatment mice, oral administration. The format is in vivo, ICR strain mice. To be noted: oral 10 mg/kg, 0.25 M citric acid 1 h after administration.
Test [3] relates to citric acid-induced cough. The settings on record: cited from earlier work.
The mark [4] stands for this setting: Table 131 (Example 1), human P2X4-expressing 1321N1 cells, ATP 1 μM, Fura-2AM calcium response, read-out: IC50.

pIC50: −log10 of the molar value. Where a name gives a salt, the structure may show the parent alone. Read-outs that look alike come from different tables or passages of the source.

Consider `O=C1CC(=O)N(c2ccc(NC(=O)c3ccccc3C(F)(F)F)cc2)c2ccc3ccccc3c2N1` [compound C, 5-[4-[2-(trifluoromethyl)benzoyl]aminophenyl]-1H-naphtho[1,2-b][1,4]diazepin-2,4(3H,5H)-dione], for which, in test [1] (as stated in Example 15, oral 58.8 mg/kg), the “cough response increased due to airway inflammation” value was “inhibited completely”. Moreover, the “number of coughs, pre versus post administration” value in test [1] (oral 58.8 mg/kg 1 h before 0.5 M citric acid stimulation) is “significantly decreased”.

Usually pIC50 stands for the negative decadic logarithm of the IC50, by convention in mol/L. As for `O=C1CN=C(c2cccc(-c3nnn[nH]3)c2)c2ccc3ccccc3c2N1` [Compound A21, 5-[3-(1H-tetrazol-5-yl)phenyl]-1,3-dihydro-2H-naphtho[1,2-e][1,4]diazepin-2-one sodium salt], the pIC50 on human P2X4 was 6.04.

For `COc1c(F)cccc1CCc1nccn1-c1ccc(N2C(=O)CC(=O)Nc3c2ccc2ccccc32)cc1` [Compound H83, 5-[4-[(2-(3-fluoro-2-methoxyphenyl)ethyl)-1H-imidazol-1-yl]phenyl]-1H-naphtho[1,2-b][1,4]diazepin-2,4(3H,5H)-dione hydrochloride], at human P2X4 (read-out: Inhibitory action IC50), the negative-log IC50 (pIC50) is 7.06.

`CN(C)c1ncccc1C(=O)Nc1ccc(C2=NCC(=O)Nc3c2ccc2ccccc32)cc1.Cl.Cl` [compound D, 2-(dimethylamino)-N-[4-(2-oxo-2,3-dihydro-1H-naphtho[1,2-e][1,4]diazepin-5-yl)phenyl]nicotinamide dihydrochloride]: the “cough response increased due to airway inflammation” value in test [1] (as stated in Example 15, oral 30 mg/kg) is recorded as “completely inhibit”. The “number of coughs, pre versus post administration” value in test [1] (oral 30 mg/kg 1 h before 0.5 M citric acid stimulation) is reported as “significantly decreased”.

For `COc1ccc2c3c1O[C@H]1[C@@H](O)CC[C@H]4[C@@H](C2)N(C)CC[C@@]341` [dihydrocodeine, reference compound], the “cough inhibition rate, compound A versus the same dose of dihydrocodeine” value in test [2] is given as “comparable”.

Consider “5-[4-[(2-(3-fluorophenyl)ethyl)-1H-imidazol-1-yl]phenyl]-1H-naphtho[1,2-b][1,4]diazepin-2,4(3H,5H)-dione hydrochloride [Compound H31]”, for which the negative logarithm of the IC50 (pIC50) on human P2X4 (Table 135 (Example 14), same protocol as Example 1, read-out: Inhibitory action IC50) was 7.29.

As to `O=C1CC(=O)N(c2ccc(-n3nnnc3Cc3ccccc3O)nc2)c2ccc3ccccc3c2N1` [Compound H11, 5-[6-[5-(2-hydroxybenzyl)-1H-tetrazol-1-yl]pyridin-3-yl]-1H-naphtho[1,2-b][1,4]diazepin-2,4(3H,5H)-dione], the pIC50 at human P2X4 (Table 134 (Example 14), same protocol as Example 1, read-out: Inhibitory action IC50) was 7.11.

`Nc1ncnc2c1ncn2[C@@H]1O[C@H](COP(=O)(O)OP(=O)(O)OP(=O)(O)O)[C@@H](O)[C@H]1O` [ATP, adenosine triphosphate]: the “effect of ATP on citric acid-induced cough” value in test [3] (guinea pigs, Non Patent Literature 1) was “elicited a concentration-dependent and significant increase”.

Consider `O=c1nc(-c2cccc(-c3nnn[nH]3)c2)c2ccc3ccccc3c2[nH]1` [Compound D2, 4-[3-(1H-tetrazol-5-yl)phenyl]-1H-benzo[h]quinazolin-2-one sodium salt], for which the pIC50 on human P2X4 (setting [4]) was 6.48.

Turning to `O=c1[nH]c2c3ccccc3ccc2n(-c2cccc(-c3nnn[nH]3)c2)c1=O` [Compound C2, 4-[3-(1H-tetrazol-5-yl)phenyl]-1,4-dihydrobenzo[f]quinoxalin-2,3-dione sodium salt], the pIC50 at human P2X4 (setting [4]) was 6.24.

As to TNP-ATP, in test [3] (Non Patent Literature 2), the “number of coughs induced by citric acid and increased depending on the concentration of ATP” value is recorded as “decreased”. Besides, the “inhibition of the ATP-elicited increase of citric acid-induced cough” value in test [3] (guinea pigs, inhalation pretreatment / aerosol, Non Patent Literature 1) is given as “completely inhibited”.

As to `O=C1CC(=O)N(c2ccc(F)c(-c3nnn[nH]3)c2)c2ccc3ccccc3c2N1` [Compound A23, 5-[4-fluoro-3-(1H-tetrazol-5-yl)phenyl]-1H-naphtho[1,2-b][1,4]diazepin-2,4(3H,5H)-dione sodium salt], on human P2X4 (setting [4]), the pIC50 is 6.31.
